Patent US10059694B2, “2-aminopyrimidine compound and pharmaceutical composition and use thereof” (Shanghai Institute of Materia Medica, Chinese Academy of …, priority 2014, dated 2018)

Experiments:
[1] = target: T1, EGFR^wt (Homo sapiens, UniProt P00533); assay: kinase inhibitory activity test (ELISA), EGFR^WT; assay type: biochemical; settings: ATP 5 μM, 1 hour at 37° C.
T1 construct: purchased Millipore
Protocol: (§1) The enzyme substrate poly (glutamic acid, tyrosine)4:1 (Sigma) was diluted with potassium-free PBS (10 mM sodium phosphate buffer, 150 mM NaCl, pH 7.2-7.4) to 20 μg/mL, plate coated with 125 μL/well, reacted for 12-16 hours at 37° C. After the liquid in the wells was discarded, the plates were washed three times with 200 μL/well of T-PBS (PBS containing 0.1% Tween-20), and each time for 5 minutes, and then dried for 1-2 hours in an oven at 37° C. 50 μL of ATP solution diluted with reaction buffer (50 mM HEPES pH 7.4, 50 mM MgCl2, 5 mM MnCl2, 0.2 mM Na3VO4, 1 mM DTT) was added into each well and the final concentration was 5 μM. The compounds were diluted with 1% DMSO to suitable concentrations and were added at 10 μL/well. […] The above reaction system was reacted for 1 hour at 37° C. shaking table (100 rpm). Control wells with no enzyme and control wells with DMSO solvent were set in each experiment. After the reaction was completed, the plates were washed three times with T-PBS. The anti-phosphotyrosine primary antibody PY99 (Santa Cruz) was added at 100 μL/well and the antibody was diluted with T-PBS containing BSA 5 mg/mL by 1:1000. The mixture was reacted for 0.5 h at 37° C. shaking table, the plates were washed three times with T-PBS. The secondary antibody which was horseradish peroxidase-labeled goat anti-mouse IgG was added at 100 μL/well (the antibody was diluted with T-PBS containing BSA 5 mg/mL by 1:2000). The mixture was reacted for 0.5 h at 37° C. shaking table, the plates were washed three times with T-PBS. 2 l/mL of OPD coloring solution was added at 100 μL/well (diluted with 0.1 M citric acid-sodium citrate buffer (pH=5.4) containing 0.03% H2O2) and dark reacted for 1 to 10 minutes at 25° C. 2 M H2SO4 was added at 50 μL/well to terminate the reaction. Reading was carried out with an adjustable wavelength microplate enzyme-labeled instrument SPECTRA MAX 190 at 490 nm wavelength.
(§2) The IC50 value was calculated by the four-parameter fitting of the suppression curve.

[2] = target: T2, EGFR^T790M/L858R (Homo sapiens, UniProt P00533, L858R/T790M); assay: kinase inhibitory activity test (ELISA), EGFR^T790M/L858R; assay type: biochemical; settings: for IC50: ELISA, ATP 5 μM, 1 hour at 37° C.
T2 construct: purchased Millipore
T2 sequence (P00533 25-1210 T790M/L858R): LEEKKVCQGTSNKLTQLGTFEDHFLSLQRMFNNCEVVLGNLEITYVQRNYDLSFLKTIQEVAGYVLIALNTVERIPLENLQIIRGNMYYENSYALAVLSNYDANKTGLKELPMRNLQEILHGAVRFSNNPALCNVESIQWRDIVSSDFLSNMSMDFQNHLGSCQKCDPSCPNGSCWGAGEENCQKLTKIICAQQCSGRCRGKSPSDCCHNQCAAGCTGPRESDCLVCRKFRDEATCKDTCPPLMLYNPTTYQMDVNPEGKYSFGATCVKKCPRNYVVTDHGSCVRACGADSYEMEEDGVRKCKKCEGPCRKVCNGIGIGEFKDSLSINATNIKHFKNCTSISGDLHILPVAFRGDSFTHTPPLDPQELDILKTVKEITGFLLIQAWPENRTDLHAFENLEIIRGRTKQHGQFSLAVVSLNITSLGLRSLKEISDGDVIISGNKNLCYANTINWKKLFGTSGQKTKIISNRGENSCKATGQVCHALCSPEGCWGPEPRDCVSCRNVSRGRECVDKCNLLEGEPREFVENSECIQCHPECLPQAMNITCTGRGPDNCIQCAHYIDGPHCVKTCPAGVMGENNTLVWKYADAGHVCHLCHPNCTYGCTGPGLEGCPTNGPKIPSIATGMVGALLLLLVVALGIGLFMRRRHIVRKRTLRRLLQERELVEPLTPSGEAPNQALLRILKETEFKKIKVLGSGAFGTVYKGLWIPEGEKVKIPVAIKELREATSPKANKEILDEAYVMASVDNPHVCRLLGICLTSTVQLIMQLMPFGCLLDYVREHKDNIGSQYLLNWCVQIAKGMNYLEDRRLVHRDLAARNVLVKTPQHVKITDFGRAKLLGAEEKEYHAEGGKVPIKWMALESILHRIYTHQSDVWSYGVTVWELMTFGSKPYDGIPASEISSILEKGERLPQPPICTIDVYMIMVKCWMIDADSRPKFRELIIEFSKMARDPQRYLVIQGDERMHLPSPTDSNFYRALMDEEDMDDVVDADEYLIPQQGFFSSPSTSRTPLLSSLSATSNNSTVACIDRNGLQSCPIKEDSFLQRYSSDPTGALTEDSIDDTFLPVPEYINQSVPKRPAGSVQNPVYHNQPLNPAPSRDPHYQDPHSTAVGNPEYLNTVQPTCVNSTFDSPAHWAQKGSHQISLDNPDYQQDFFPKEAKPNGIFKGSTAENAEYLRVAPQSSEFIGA
Protocol: as §1, §2

[3] = target: T3, IGF-1R (Homo sapiens, UniProt P08069); assay: kinase inhibitory activity test (ELISA), IGF-1R; assay type: biochemical; settings: ATP 5 μM, 1 hour at 37° C.
T3 construct: purchased Millipore
T3 sequence (P08069 31-1367): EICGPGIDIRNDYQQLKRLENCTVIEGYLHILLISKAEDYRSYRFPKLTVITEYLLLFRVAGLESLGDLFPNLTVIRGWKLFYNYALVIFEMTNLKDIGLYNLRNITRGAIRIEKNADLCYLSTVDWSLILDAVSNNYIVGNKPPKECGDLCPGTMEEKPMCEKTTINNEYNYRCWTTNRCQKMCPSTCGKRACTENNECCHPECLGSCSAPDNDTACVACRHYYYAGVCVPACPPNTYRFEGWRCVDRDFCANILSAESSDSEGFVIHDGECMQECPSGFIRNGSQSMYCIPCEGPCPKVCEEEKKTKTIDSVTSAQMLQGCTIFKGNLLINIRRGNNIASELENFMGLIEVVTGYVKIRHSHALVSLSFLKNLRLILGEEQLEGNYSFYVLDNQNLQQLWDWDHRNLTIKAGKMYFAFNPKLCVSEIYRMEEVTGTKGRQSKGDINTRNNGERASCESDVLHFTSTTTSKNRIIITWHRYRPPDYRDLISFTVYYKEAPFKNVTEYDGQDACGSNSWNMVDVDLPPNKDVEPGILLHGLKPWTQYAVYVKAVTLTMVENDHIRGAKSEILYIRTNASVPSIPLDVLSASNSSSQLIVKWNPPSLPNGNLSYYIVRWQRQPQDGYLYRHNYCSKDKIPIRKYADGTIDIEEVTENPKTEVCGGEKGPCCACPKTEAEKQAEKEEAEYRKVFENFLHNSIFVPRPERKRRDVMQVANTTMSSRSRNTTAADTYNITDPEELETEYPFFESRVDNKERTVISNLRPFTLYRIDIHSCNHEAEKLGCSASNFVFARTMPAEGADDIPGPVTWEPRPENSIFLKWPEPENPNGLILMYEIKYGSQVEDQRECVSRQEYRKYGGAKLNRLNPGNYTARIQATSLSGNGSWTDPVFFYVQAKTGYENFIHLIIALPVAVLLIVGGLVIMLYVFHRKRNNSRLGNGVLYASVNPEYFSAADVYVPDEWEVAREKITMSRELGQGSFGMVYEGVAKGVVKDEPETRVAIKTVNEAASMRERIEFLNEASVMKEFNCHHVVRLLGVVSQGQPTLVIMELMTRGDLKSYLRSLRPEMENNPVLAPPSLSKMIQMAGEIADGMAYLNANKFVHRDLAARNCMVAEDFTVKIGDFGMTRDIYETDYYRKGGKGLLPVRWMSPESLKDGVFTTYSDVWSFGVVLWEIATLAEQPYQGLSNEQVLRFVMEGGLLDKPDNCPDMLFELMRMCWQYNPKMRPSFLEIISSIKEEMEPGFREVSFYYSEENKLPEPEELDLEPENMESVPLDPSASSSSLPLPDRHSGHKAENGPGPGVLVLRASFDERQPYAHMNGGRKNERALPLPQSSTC
Protocol: The enzyme substrate poly (glutamic acid, tyrosine)4:1 (Sigma) was diluted with potassium-free PBS (10 mM sodium phosphate buffer, 150 mM NaCl, pH 7.2-7.4) to 20 μg/mL, plate coated with 125 μL/well, reacted for 12-16 hours at 37° C. After the liquid in the wells was discarded, the plates were washed three times with 200 μL/well of T-PBS (PBS containing 0.1% Tween-20), and each time for 5 minutes, and then dried for 1-2 hours in an oven at 37° C. 50 μL of ATP solution diluted with reaction buffer (50 mM HEPES pH 7.4, 50 mM MgCl2, 5 mM MnCl2, 0.2 mM Na3VO4, 1 mM DTT) was added into each well and the final concentration was 5 μM. The compounds were diluted with 1% DMSO to suitable concentrations and were added at 10 μL/well. Then different types of tyrosine kinase proteins (including EGFR^wt, EGFR^T790M/L858R and IGF-1R, purchased from Millipore) diluted with 40 μL of reaction buffer were added. The above reaction system was reacted for 1 hour at 37° C. shaking table (100 rpm). Control wells with no enzyme and control wells with DMSO solvent were set in each experiment. After the reaction was completed, the plates were washed three times with T-PBS. The anti-phosphotyrosine primary antibody PY99 (Santa Cruz) was added at 100 μL/well and the antibody was diluted with T-PBS containing BSA 5 mg/mL by 1:1000. The mixture was reacted for 0.5 h at 37° C. shaking table, the plates were washed three times with T-PBS. The secondary antibody which was horseradish peroxidase-labeled goat anti-mouse IgG was added at 100 μL/well (the antibody was diluted with T-PBS containing BSA 5 mg/mL by 1:2000). The mixture was reacted for 0.5 h at 37° C. shaking table, the plates were washed three times with T-PBS. 2 l/mL of OPD coloring solution was added at 100 μL/well (diluted with 0.1 M citric acid-sodium citrate buffer (pH=5.4) containing 0.03% H2O2) and dark reacted for 1 to 10 minutes at 25° C. 2 M H2SO4 was added at 50 μL/well to terminate the reaction. Reading was carried out with an adjustable wavelength microplate enzyme-labeled instrument SPECTRA MAX 190 at 490 nm wavelength.
as §2

[4] = test system: human epidermal carcinoma A431 cell line; assay: SRB proliferation assay, A431 cells; assay type: cell-based; settings: A-431, SRB, 72 h, read-out: IC50 A431
Protocol: (§3) Cell lines: human epidermal carcinoma A431 cell line and human non-small cell lung cancer NCI-H1975 cell line was purchased from the American Standard Biology Collection Center (ATCC).
(§4) Methods: sulforhodamine B (SRB) method, which was as follows: certain number of different tumor cells in logarithmic growth phase were inoculated on 96-well culture plates. After cultured for 24 h to cell adherence, different concentrations of the test compounds of the invention were added. Each concentration was provided with three wells, and a corresponding concentration of DMSO solvent control and a cell-free zeroing well were set. After the cells were treated with the medicine for 72 h, the culture medium was discarded and 100 μL of 10% pre-cooled trichloroacetic acid solution was added to fix the cells. After placed for 1 h at 4° C., it was washed for 5 times with distilled water and dried naturally. Then 100 μL SRB (4 mg/mL) (Sigma) solution was added and stained for 15 min at room temperature. The staining solution was discarded and washed for 5 times with 1% glacial acetic acid and dried. Finally, 150 μL of 10 mM Tris solution (pH 10.5) was added and the OD value was measured at 515 nm with adjustable wavelength microplate enzyme-labeled instrument (VERSAmax™, Molecular Device Corporation, Sunnyvale, Calif., USA).

[5] = test system: human non-small cell lung cancer NCI-H1975 cell line; assay: SRB proliferation assay, NCI-H1975 cells; assay type: cell-based; settings: NCI-H1975, SRB, 72 h, read-out: IC50 NCI-H1975
Protocol: as §3
as §4, with “USA). […] Based on the inhibitory effect of the 2-aminopyrimidine compounds on the growth of these cells, the half maximal inhibitory concentration (IC50) values were calculated, as shown in Table 2.” for “USA).”

T1 sequence (P00533 25-1210): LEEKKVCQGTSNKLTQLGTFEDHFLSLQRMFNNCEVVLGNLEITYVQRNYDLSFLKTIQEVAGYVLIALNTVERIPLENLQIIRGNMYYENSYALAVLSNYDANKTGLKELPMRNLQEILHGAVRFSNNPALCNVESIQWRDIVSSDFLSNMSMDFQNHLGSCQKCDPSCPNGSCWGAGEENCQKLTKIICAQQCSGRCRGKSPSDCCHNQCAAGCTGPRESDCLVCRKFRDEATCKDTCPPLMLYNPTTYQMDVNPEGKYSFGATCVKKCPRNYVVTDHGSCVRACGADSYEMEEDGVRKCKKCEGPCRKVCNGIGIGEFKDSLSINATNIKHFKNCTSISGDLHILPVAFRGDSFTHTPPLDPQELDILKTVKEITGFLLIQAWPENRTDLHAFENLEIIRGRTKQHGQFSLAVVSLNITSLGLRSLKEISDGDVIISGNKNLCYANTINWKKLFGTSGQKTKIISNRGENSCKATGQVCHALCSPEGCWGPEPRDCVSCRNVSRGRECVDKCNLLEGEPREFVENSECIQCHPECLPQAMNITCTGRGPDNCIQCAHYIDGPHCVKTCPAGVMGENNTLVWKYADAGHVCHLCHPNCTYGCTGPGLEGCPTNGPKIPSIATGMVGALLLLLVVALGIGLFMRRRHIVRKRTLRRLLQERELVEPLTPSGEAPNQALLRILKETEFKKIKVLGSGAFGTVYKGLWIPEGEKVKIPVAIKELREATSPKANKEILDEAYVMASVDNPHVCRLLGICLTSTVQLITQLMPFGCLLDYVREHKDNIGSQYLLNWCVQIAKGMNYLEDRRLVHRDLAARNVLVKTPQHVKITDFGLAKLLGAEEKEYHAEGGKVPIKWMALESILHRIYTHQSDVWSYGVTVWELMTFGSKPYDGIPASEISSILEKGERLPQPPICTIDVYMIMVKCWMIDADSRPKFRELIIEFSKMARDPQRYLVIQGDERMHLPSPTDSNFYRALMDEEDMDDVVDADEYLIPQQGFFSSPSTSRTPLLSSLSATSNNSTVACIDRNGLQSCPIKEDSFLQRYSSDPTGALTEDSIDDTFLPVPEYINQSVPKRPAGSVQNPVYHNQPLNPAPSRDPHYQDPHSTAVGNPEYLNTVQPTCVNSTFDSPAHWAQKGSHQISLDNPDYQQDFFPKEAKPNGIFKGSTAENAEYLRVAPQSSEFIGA

| Structure (SMILES) | IC50 [1] [nM] | IC50 [2] [nM] | IC50 [3] [nM] | IC50 [4] [nM] | IC50 [5] [nM] | kinase inhibitory activity (in words) ([2]; summary of Table 1) |
| --- | --- | --- | --- | --- | --- | --- |
| CN(C)C/C=C/C(=O)Nc1ccc(F)c(Nc2ncc(Br)c(Nc3ccc4ccccc4c3)n2)c1 [CCB145330, (E)-N-((3-((5-bromo-4-((naphthalen-2-yl)amino))pyrimidin-2-yl)amino)-4-fluorophenyl)-4-(dimethylamino)-2-butenamide] | 4150 | 32.4 | 146 | 12800 | 948 |  |
| CN(C)C/C=C/C(=O)Nc1ccc(F)c(Nc2ncc(Cl)c(Nc3ccc4ccccc4c3)n2)c1 [CCB145329] | 1400 | 55.7 | 198 | 20500 | 1060 |  |
| CN(C)C/C=C/C(=O)Nc1cccc(Nc2ncc(Br)c(Nc3ccc4ccccc4c3)n2)c1 [CCB145335, (E)-N-((3-((5-bromo-4-((naphthalen-2-yl)amino))pyrimidin-2-yl)amino)phenyl)-4-(dimethylamino)-2-butenamide] | 3890 | 35.7 | 90.6 | 2590 | 2480 |  |
| COc1ccc(NC(=O)/C=C/CN(C)C)cc1Nc1ncc(Cl)c(Sc2ccc3ccccc3c2)n1 [CCB145291, (E)-N-((3-((5-chloro-4-((naphthalen-2-yl)sulfenyl))pyrimidin-2-yl)amino)-4-methoxyphenyl)-4-(dimethylamino)-2-butenamide] | ≥ 10000 | 159 | 347 | 11100 | 2780 |  |
| COc1ccc(NC(=O)/C=C/CN(C)C)cc1Nc1ncc(C(C)C)c(Nc2ccc3ccccc3c2)n1 [CCB145283, (E)-N-((3-((5-isopropyl-4-((naphthalen-2-yl)amino))pyrimidin-2-yl)amino)-4-methoxyphenyl)-4-(dimethylamino)-2-butenamide] | 2290 | 151 | 85.2 | 1040 | 860 |  |
| COc1ccc(NC(=O)/C=C/CN(C)C)cc1Nc1ncc(C(F)(F)F)c(Nc2ccc3ccccc3c2)n1 [CCB145274, (E)-N-((3-((5-trifluoromethyl-4-((naphthalen-2-yl)amino))pyrimidin-2-yl)amino)-4-methoxyphenyl)-4-(dimethylamino)-2-butenamide] | 2070 | 31.3 | 41 | 1220 | 682 |  |
| COc1ccc(NC(=O)/C=C/CN(C)C)cc1Nc1ncc(Cl)c(Nc2ccc3ncccc3c2)n1 [CCB145213, (E)-N-((3-((5-chloro-4-((quinolin-6-yl)amino))pyrimidin-2-yl)amino)-4-methoxyphenyl)-4-(dimethylamino)-2-butenamide] | 615 | 43.5 | 37.1 | 857 | 240 |  |
| C=CC(=O)Nc1cc(Nc2ncc(Cl)c(Nc3ccc4ccccc4c3)n2)c(OC)cc1N1CCOCC1 [CCB120117, N-((5-((5-chloro-4-((naphthalen-2-yl)amino))pyrimidin-2-yl)amino)-2-morpholinyl-4-methoxyphenyl)acrylamide] | > 100 | 9.4 | 18.7 | > 10000 | 272 |  |
| COc1ccc(NC(=O)/C=C/CN(C)C)cc1Nc1ncc(Br)c(Nc2ccc3ccccc3c2)n1 [CCB145286, (E)-N-((3-((5-bromo-4-((naphthalen-2-yl)amino))pyrimidin-2-yl)amino)-4-methoxyphenyl)-4-(dimethylamino)-2-butenamide] | 254 | 22.5 | 20.5 | 1120 | 416 |  |
| C=CC(=O)Nc1cc(Nc2ncc(Cl)c(Nc3ccc4ccccc4c3)n2)c(OC)cc1N1CCN(C)CC1 [CCB120115, N-((5-((5-chloro-4-((naphthalen-2-yl)amino))pyrimidin-2-yl)amino)-2-(4-methylpiperazine)-4-methoxyphenyl)acrylamide] | 40.3 | 1.6 | 28.5 | 2590 | 16 | potent |
| C=CC(=O)Nc1cc(CN2CCOCC2)cc(Nc2ncc(Cl)c(Nc3ccc4ccccc4c3)n2)c1 [CCB120106] | > 1000 | 4.1 | 138 | 2000 | 311 |  |
| Cc1cc(NC(=O)/C=C/CN(C)C)cc(Nc2ncc(Br)c(Nc3ccc4ccccc4c3)n2)c1 [CCB145342, (E)-N-((3-((5-bromo-4-((naphthalen-2-yl)amino))pyrimidin-2-yl)amino)-5-methylphenyl)-4-(dimethylamino)-2-butenamide] | 1880 | 44.2 | 127 | 942 | 1260 |  |
| C=CC(=O)Nc1cc(Nc2ncc(Cl)c(Nc3ccc4ccccc4c3)n2)c(OC)cc1N1CCN(C(C)=O)CC1 [CCB120111, N-((5-((5-chloro-4-((naphthalen-2-yl)amino))pyrimidin-2-yl)amino)-2-(4-acetylpiperazine)-4-methoxyphenyl)acrylamide] | > 100 | 21.5 | 19.8 | 1100 | 51 |  |
